Patent US20100286092A1, “BETA-LACTAMASE INHIBITORS” (priority 2007, published 2010)

Columns and labels:
Details in all cases: in the presence of a fixed amount (8 μg/mL) of Ceftazidime; CAMHB, 16-20 hours at 37° C.
[1] = tested on: E. cloacae expressing the Class C P99+; type: cell-based
Excerpt: (§1) To determine the ability of test compounds to potentiate the inhibition of the growth of bacterial strains producing beta-lactamase enzymes, classic cell based screening assays were employed. Four bacteria strains producing beta-lactamase enzymes were used: K. pneumoniae expressing the Class A Extended Spectrum Beta-Lactamase (ESBL) CTX-M-15, E. coli expressing the Class A ESBL SHV-5, E. cloacae expressing the Class C P99+, and K. pneumoniae expressing the Class A carbapenemase KPC-2. In order to evaluate the ability of test compounds to inhibit beta-lactamase activity, Applicants used a modification of the broth microdilution assay. The assay was conducted in Cation Adjusted Mueller Hinton Broth (CAMHB, BD #212322, BD Diagnostic Systems, Sparks, Md.). Bacteria strains were grown for 3-5 hours in CAMBH broth. All four strains were grown in presence of 50 μg/mL ampicillin to ensure resistance is maintained. In the meantime, test compounds were diluted in DMSO to a 0.1 mg/mL stock. The compounds were added to a microtiter plate and were diluted in 2-fold serial dilutions in CAMHB in a final concentration range of 8 μg/mL to 0.015 μg/ml. An overlay of CAMHB containing a cephalosporin was added to the compounds at a final static concentration of 8 μg/ml. […] Each of these compound plates are made in quadruplicate, one for each bacteria strain. In addition to the titration of test compounds the MICs of a panel of cephalosporins is also tested to ensure the strains are behaving consistently from test to test. Once the test compound and cephalosporin are added the plates can be inoculated. Inocula are conducted according to CLSI broth microdilution method. After inoculation the plates are incubated for 16-20 hours at 37° C. then the Minimal Inhibitory Concentration (MIC) of the test compound is determined visually.
(§2) Using the methodology described above, examples of the current invention were evaluated for their ability to inhibit the growth of β-lactamase producing bacteria in the presence of a β-lactam antibiotic. […] NT=Not Tested.

[2] = tested on: K. pneumoniae expressing the Class A Extended Spectrum Beta-Lactamase (ESBL) CTX-M-15; type: cell-based
Excerpt: as §1, §2

[3] = tested on: K. pneumoniae expressing the Class A carbapenemase KPC-2
Excerpt: as §1, §2

Compound	MIC of example compound, E. cloacae P99 AmpC + 8 μg/mL CAZ [1]	MIC of example compound, K. pneumoniae CTX-M-15 + 8 μg/mL CAZ [2]	MIC of example compound, K. pneumoniae KPC-2 + 8 μg/mL CAZ [3]
O=C(Cc1cccs1)N[C@@H](Cc1ccc(C(=O)O)cc1O)B(O)O [Example 2, (1R)-1-(2-thiophene-2-yl-acetylamino)-2-(2-hydroxy-4-carboxyphenyl)ethyl-1-boronic acid]	A (A represents an MIC>8 μg/mL)		
O=C(Cc1cccc(O)c1)N[C@@H](Cc1cccc(C(=O)O)c1O)B(O)O [Example 3, (1R)-1-(3-hydroxy-phenyl)acetylamino-1-(3-carboxy-2-hydroxy)benzyl-methyl boronic acid]		C (C represents an MIC of <1 μg/mL)	C (C represents an MIC of <1 μg/mL)
O=C(CCC(=O)c1cccs1)N[C@@H](Cc1cccc(C(=O)O)c1O)B(O)O [Example 5, (1R)-1-(4-oxo-4-thiophen-2-yl-butyrylamino)-2-(2-hydroxy-3-carboxyphenyl)ethyl-1-boronic acid]	C (C represents an MIC of <1 μg/mL)	C (C represents an MIC of <1 μg/mL)	C (C represents an MIC of <1 μg/mL)
CC(=O)N[C@@H](Cc1cccc(C(=O)O)c1O)B(O)O [Example 6, (1R)-1-(2-acetylamino)-2-(2-hydroxy-3-carboxyphenyl)ethyl-1-boronic acid]		C (C represents an MIC of <1 μg/mL)	C (C represents an MIC of <1 μg/mL)
NC(=O)COc1cccc(CC(=O)N[C@@H](Cc2cccc(C(=O)O)c2O)B(O)O)c1 [Example 8, (1R)-1-[(3-carbamoylmethoxy)-phenyl]-acetylamino-(3-carboxy-2-hydroxy)benzyl-methylboronic acid]		C (C represents an MIC of <1 μg/mL)	C (C represents an MIC of <1 μg/mL)
O=C(N[C@@H](Cc1cccc(C(=O)O)c1O)B(O)O)c1cccs1 [Example 11, (1R)-1-(thiophene-2-carbonyl-amino)-2-(2-hydroxy-3-carboxyphenyl)ethyl-1-boronic acid]	C (C represents an MIC of <1 μg/mL)	C (C represents an MIC of <1 μg/mL)	C (C represents an MIC of <1 μg/mL)
N[C@H](C(=O)N[C@@H](Cc1cccc(C(=O)O)c1O)B(O)O)c1ccccc1.O=CO [Example 12, (1R,2′S)-1-(2-amino-2-phenylacetylamino)-2-(2-hydroxy-3-carboxyphenyl)ethyl-1-boronic acid formate salt]		C (C represents an MIC of <1 μg/mL)	C (C represents an MIC of <1 μg/mL)
O=C(N[C@@H](Cc1cccc(C(=O)O)c1O)B(O)O)c1ccccc1 [Example 13, (1R)-1-Benzoylamino-1-(3-carboxy-2-hydroxy)benzyl-methylboronic acid]	C (C represents an MIC of <1 μg/mL)	C (C represents an MIC of <1 μg/mL)	C (C represents an MIC of <1 μg/mL)
CC(C)C(=O)N[C@@H](Cc1cccc(C(=O)O)c1O)B(O)O [Example 14, (1R)-1-Isobutyrylamino-1-(3-carboxy-2-hydroxy)benzyl-methylboronic acid]	C (C represents an MIC of <1 μg/mL)	C (C represents an MIC of <1 μg/mL)	C (C represents an MIC of <1 μg/mL)
O=C(O)c1cccc(C[C@H](NC(=O)C2CCCC2)B(O)O)c1O [Example 15, (1R)-1-Cyclopentanecarbonylamino-(3-carboxy-2-hydroxy)benzyl-methylboronic acid]	C (C represents an MIC of <1 μg/mL)	C (C represents an MIC of <1 μg/mL)	C (C represents an MIC of <1 μg/mL)
O=C(Cc1cc(O)ccc1O)N[C@@H](Cc1cccc(C(=O)O)c1O)B(O)O [Example 18, (1R)-1-(2-(2,5-dihydroxyphenyl)acetylamino)-2-(2-hydroxy-3-carboxyphenyl)ethyl-1-boronic acid]		C (C represents an MIC of <1 μg/mL)	
O=C(COCc1ccccc1)N[C@@H](Cc1cccc(C(=O)O)c1O)B(O)O [Example 22, (1R)-1-(2-benzyloxyacetylamino)-2-(2-hydroxy-3-carboxyphenyl)ethyl-1-boronic acid]		C (C represents an MIC of <1 μg/mL)	C (C represents an MIC of <1 μg/mL)
CCCCCCC(=O)N[C@@H](Cc1cccc(C(=O)O)c1O)B(O)O [Example 24, (1R)-1-(heptanoylamino)-2-(2-hydroxy-3-carboxyphenyl)ethyl-1-boronic acid]		C (C represents an MIC of <1 μg/mL)	C (C represents an MIC of <1 μg/mL)
CC(C)(C)CC(=O)N[C@@H](Cc1cccc(C(=O)O)c1O)B(O)O [Example 25, (1R)-1-(3,3-Dimethyl-butyrylamino)-(3-carboxy-2-hydroxy)benzyl-methylboronic acid]		C (C represents an MIC of <1 μg/mL)	C (C represents an MIC of <1 μg/mL)
O=C(O)c1cccc(C[C@H](NC(=O)c2cccc3ccccc23)B(O)O)c1O [Example 27, (1R)-1-(1-naphthoylamino)-2-(2-hydroxy-3-carboxyphenyl)ethyl-1-boronic acid]			C (C represents an MIC of <1 μg/mL)
O=C(N[C@@H](Cc1cccc(C(=O)O)c1O)B(O)O)c1cccc(O)c1 [Example 28, (1R)-1-(3-hydroxybenzoylamino)-2-(2-hydroxy-3-carboxyphenyl)ethyl-1-boronic acid]		C (C represents an MIC of <1 μg/mL)	C (C represents an MIC of <1 μg/mL)
Cc1ccccc1C(=O)N[C@@H](Cc1cccc(C(=O)O)c1O)B(O)O [Example 30, (1R)-1-(2-methylbenzoylamino)-2-(2-hydroxy-3-carboxyphenyl)ethyl-1-boronic acid]			C (C represents an MIC of <1 μg/mL)
O=C(N[C@@H](Cc1cccc(C(=O)O)c1O)B(O)O)c1ccc(Cl)nc1 [Example 31, (1R)-1-(6-Chloro-pyridine-3-carbonyl)-amino-1-(3-carboxy-2-hydroxy)benzyl-methylboronic acid]		C (C represents an MIC of <1 μg/mL)	C (C represents an MIC of <1 μg/mL)
O=C(N[C@@H](Cc1cccc(C(=O)O)c1O)B(O)O)c1ccc(Cl)cc1 [Example 32, (1R)-1-(4-Chloro-benzoyl)-amino-1-(3-carboxy-2-hydroxy)benzyl-methylboronic acid]			C (C represents an MIC of <1 μg/mL)
COc1ccc(C(=O)N[C@@H](Cc2cccc(C(=O)O)c2O)B(O)O)cc1 [Example 33, (1R)-1-(4-Methoxybenzoyl)-amino-1-(3-carboxy-2-hydroxy)benzyl-methylboronic acid]			C (C represents an MIC of <1 μg/mL)
O=C(N[C@@H](Cc1cccc(C(=O)O)c1O)B(O)O)c1ccccc1O [Example 35, (1R)-1-(2-hydroxybenzoylamino)-2-(2-hydroxy-3-carboxyphenyl)ethyl-1-boronic acid]			C (C represents an MIC of <1 μg/mL)
O=C(Cn1cccn1)N[C@@H](Cc1cccc(C(=O)O)c1O)B(O)O [Example 40, (1R)-1-(Pyrazol-1-yl-acetylamino)-2-(2-hydroxy-3-carboxyphenyl)ethyl-1-boronic acid]		C (C represents an MIC of <1 μg/mL)	C (C represents an MIC of <1 μg/mL)
NCc1cccc(C(=O)N[C@@H](Cc2cccc(C(=O)O)c2O)B(O)O)c1.O=CO [Example 42, (1R)-1-(3-aminomethyl)-benzoylamino-1-(3-carboxy-2-hydroxy)benzyl-methyl boronic acid formate]	C (C represents an MIC of <1 μg/mL)		C (C represents an MIC of <1 μg/mL)
O=C(CN1C(=O)c2ccccc2C1=O)N[C@@H](Cc1cccc(C(=O)O)c1O)B(O)O [Example 45, (1R)-1-(2-(1,3-dioxoisoindolin-2-yl)acetylamino)-2-(2-hydroxy-3-carboxyphenyl)ethyl-1-boronic acid]			C (C represents an MIC of <1 μg/mL)
